Reference: patent US20250188075A1, “SUBSTITUTED HETEROCYCLIC CSNK1 INHIBITORS” (The Broad Institute, Inc., priority 2022, published 2025)
Like-named read-outs stand apart in the source and are kept apart here.

How the values were obtained:
human CSNK1G3 = human CSNK1G3 (Homo sapiens (Human), UniProt Q9Y6M4); experiment: CSNK1G3 assay (ADP-Glo); type: biochemical; details: median, read-out: CSNK1G IC50 [mol/l] (median)
Procedure: CSNK1G3-inhibitory activity of compounds of the present invention in presence of 1 μM adenosine-tri-phosphate (ATP) was quantified employing the CSNK1G3 assay as described in the following paragraphs. In essence, the enzyme activity is measured by quantification of the adenosine-di-phosphate (ADP), which is generated as a co-product of the enzyme reaction, via the “ADP-Glo™ Kinase Assay” kit from the company Promega. This detection system works as follows: In a first step the ATP not consumed in the kinase reaction is quantitatively converted to CAMP employing an adenylate cyclase (“ADP-Glo-reagent”), then the adenylate cyclase is stopped and the ADP generated in the kinase reaction converted to ATP which generates in a luciferase-based reaction a glow-luminescence signal (“Kinase Detection Reagent”).
(§1) Recombinant fusion protein of N-terminal Glutathion-S-Transferase (GST) and full-length human CSNK1G3, expressed by baculovirus infected insect cells and purified via Glutathion affinity chromatography, was purchased from Life Technologies (product no. PV3838) and used as enzyme. As substrate for the kinase reaction the biotinylated peptide biotin-Ahx-KRRRAL-pS-VASLPGL (C-terminus in amide form) was used which can be purchased e.g. from the company Biosyntan (Berlin-Buch, Germany).
For the assay 50 nl of a 100 fold concentrated solution of the test compound in DMSO was pipetted into a white 1536-well microtiter plate (Greiner Bio-One, Frickenhausen, Germany), 2 μL of a solution of CSNK1G3 in aqueous assay buffer [50 mM HEPES pH 7.5, 10% (v/v) glycerol, 10 mM MgCl2, 50 mM NaCl, 1 mM dithiothreitol, 0.01% (w/v) bovine serum albumin, 0.01% (v/v) Triton X-100] were added and the mixture was incubated for 15 min at 22° C. to allow pre-binding of the test compounds to the enzyme before the start of the kinase reaction. Then the kinase reaction was started by the addition of 3 μL of a solution of ATP ([…]=>final conc. in the 5 μL assay volume is 1 M) and peptide substrate (50 μM=>final conc. in the 5 μL assay volume is 30 μM) in assay buffer and the resulting mixture was incubated for a reaction time of 30 min at 22° C. The concentration of CSNK1G3 was adjusted depending of the activity of the enzyme lot and was chosen appropriate to have the assay in the linear range, a typical concentration is about 0.06 ng/μL. The reaction was stopped by the addition of 2.5 μL of “ADP-Glo-reagent” (1:1.5 fold diluted with water) and the resulting mixture was incubated at 22° C. for 1 h to convert the ATP not consumed in the kinase reaction completely to CAMP. Subsequently 2.5 μL of the “kinase detection reagent” (1.2 fold more concentrated than recommended by the producer) were added, the resulting mixture was incubated at 22° C. for 1 h and then the luminescence measured with a suitable measurement instrument (e.g. Viewlux™ from Perkin-Elmer). The amount of emitted light was taken as a measure for the amount of ADP generated and thereby for the activity of the CSNK1G3.
(§2) The data were normalised (enzyme reaction without inhibitor=0% inhibition, all other assay components but no enzyme=100% inhibition).

human CSNK1A1 = human CSNK1A1 (Homo sapiens (Human), UniProt P48729); experiment: CSNK1A1 high ATP assay (ADP-Glo, 1 mM ATP); type: biochemical; details: median, read-out: CSNK1A1 High ATP assay IC50 [mol/l] (median)
Procedure: CSNK1A1-inhibitory activity of compounds of the present invention in presence of 1 mM adenosine-tri-phosphate (ATP) was quantified employing the CSNK1A1-high-ATP-assay as described in the following paragraphs. In essence, the enzyme activity is measured by quantification of the adenosine-di-phosphate (ADP), which is generated as a co-product of the enzyme reaction, via the “ADP-Glo™ Kinase Assay” kit from the company Promega. This detection system works as follows: In a first step the ATP not consumed in the kinase reaction is quantitatively converted to CAMP employing an adenylate cyclase (“ADP-Glo-reagent”), then the adenylate cyclase is stopped and the ADP generated in the kinase reaction converted to ATP which generates in a luciferase-based reaction a glow-luminescence signal (“Kinase Detection Reagent”).
as §1, with “CSNK1A1,” for “CSNK1G3,”, “PV4174)” for “PV3838)”
For the assay 50 nl of a 100 fold concentrated solution of the test compound in DMSO was pipetted into a white low volume 384-well microtiter plate (Greiner Bio-One, Frickenhausen, Germany), 2 μL of a solution of CSNK1A1 in aqueous assay buffer [50 mM HEPES pH 7.5, 10% (v/v) glycerol, 10 mM MgCl2, 50 mM NaCl, 1 mM dithiothreitol, 0.01% (w/v) bovine serum albumin, 0.01% (v/v) Triton X-100] were added and the mixture was incubated for 15 min at 22° C. to allow pre-binding of the test compounds to the enzyme before the start of the kinase reaction. Then the kinase reaction was started by the addition of 3 μL of a solution of ATP (1.67 mM=>final conc. in the 5 μL assay volume is 1 mM) and peptide substrate (167 μM=>final conc. in the 5 μL assay volume is 100 μM) in assay buffer and the resulting mixture was incubated for a reaction time of 30 min at 22° C. The concentration of CSNK1A1 was adjusted depending of the activity of the enzyme lot and was chosen appropriate to have the assay in the linear range, a typical concentration is about 0.4 ng/μL. The reaction was stopped by the addition of 2.5 μL of “ADP-Glo-reagent” (1:1.5 fold diluted with water) and the resulting mixture was incubated at 22° C. for 1 h to convert the ATP not consumed in the kinase reaction completely to CAMP. Subsequently 2.5 μL of the “kinase detection reagent” (1.2 fold more concentrated than recommended by the producer) were added, the resulting mixture was incubated at 22° C. for 1 h and then the luminescence measured with a suitable measurement instrument (e.g. Viewlux™ from Perkin-Elmer). The amount of emitted light was taken as a measure for the amount of ADP generated and thereby for the activity of the CSNK1A1.
as §2

[1] = Solubility assay (thermodynamic solubility); type: physicochemical; details: aqueous buffer; for solubility thermodynamic at 24 h: thermodynamic from solid, mean; for Thermodynamic Solubility [mg/l] (mean) / Thermodynamic Solubility [μmol/L] (mean): 24 h
Procedure: Solubility of solid compound in aqueous buffer was determined by an equilibrium shake flask method. A saturated solution of drug in solvent (˜2 mg/ml solvent) was prepared and the solution was mixed for 24 h to ensure that equilibrium has been reached. The solution was centrifuged to remove the insoluble fraction and the concentration of the compound in solution was determined by HPLC-UV using a standard calibration curve (Kerns, E. H. et al., Solubility Methods in: Drug-like Properties: Concepts, Structure Design and Methods, p 276-286. Burlington, MA: Academic Press 2008).

[2] = read-out: Thermodynamic Solubility [mg/l] (mean)
[3] = read-out: Thermodynamic Solubility [μmol/L] (mean)

Chain of human CSNK1A1 (P48729 whole entry): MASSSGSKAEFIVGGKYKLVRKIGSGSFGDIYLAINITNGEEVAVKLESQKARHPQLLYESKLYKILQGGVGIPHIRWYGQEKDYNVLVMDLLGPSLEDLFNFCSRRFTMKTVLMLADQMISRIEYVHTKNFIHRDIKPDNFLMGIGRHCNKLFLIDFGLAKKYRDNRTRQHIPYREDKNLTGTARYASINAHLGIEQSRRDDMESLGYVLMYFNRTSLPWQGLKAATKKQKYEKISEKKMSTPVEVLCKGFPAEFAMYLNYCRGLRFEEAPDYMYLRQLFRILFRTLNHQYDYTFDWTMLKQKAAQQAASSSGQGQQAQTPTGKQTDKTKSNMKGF
Chain of human CSNK1G3 (Q9Y6M4 whole entry): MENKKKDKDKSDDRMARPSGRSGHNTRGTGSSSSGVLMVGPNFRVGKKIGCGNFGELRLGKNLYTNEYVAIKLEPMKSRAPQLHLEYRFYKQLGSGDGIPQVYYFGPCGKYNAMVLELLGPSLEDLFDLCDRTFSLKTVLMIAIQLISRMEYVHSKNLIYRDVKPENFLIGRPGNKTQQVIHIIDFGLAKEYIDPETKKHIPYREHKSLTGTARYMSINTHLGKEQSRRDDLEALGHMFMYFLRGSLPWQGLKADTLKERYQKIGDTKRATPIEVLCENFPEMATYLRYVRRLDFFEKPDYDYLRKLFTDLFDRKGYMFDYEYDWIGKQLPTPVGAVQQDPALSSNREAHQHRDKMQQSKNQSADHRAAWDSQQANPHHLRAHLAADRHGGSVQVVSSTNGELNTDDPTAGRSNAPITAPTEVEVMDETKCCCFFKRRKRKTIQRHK

Row | SMILES | IC50 (human CSNK1G3) [µM] | IC50 (human CSNK1A1) [µM] | solubility thermodynamic at 24 h [1, 2] [mg/L] | solubility thermodynamic at 24 h [1, 3] [µmol/L] | Thermodynamic Solubility [mg/l] (mean) [1] [mg/L] | Thermodynamic Solubility [μmol/L] (mean) [1] [µmol/L]
1 | O=C(Nc1cc(-c2[nH]c3c(OCC(F)F)ncnc3c2-c2ccccn2)ccn1)[C@@H](CC(F)F)c1ccc(F)cc1 [Example C3, reference compound] | 0.00622 | 0.00884 | – | – | <0.10 | <0.18
2 | Cn1nc(CC(=O)Nc2cc(-c3[nH]c4cccnc4c3-c3ccccn3)ccn2)cc1C(F)(F)F [Example 21, 2-[1-methyl-5-(trifluoromethyl)pyrazol-3-yl]-N-[4-[3-(2-pyridyl)-^1H-pyrrolo[3,2-b]pyridin-2-yl]-2-pyridyl]acetamide] | 0.0297 | 0.0866 | < 0.1 | < 0.21 | – | –
3 | O=C(Cc1cc2ccccn2n1)Nc1cc(-c2[nH]c3cccnc3c2-c2ccccn2)ccn1 [Example 15, 2-pyrazolo[1,5-a]pyridin-2-yl-N-[4-[3-(2-pyridyl)-^1H-pyrrolo[3,2-b]pyridin-2-yl]-2-pyridyl]acetamide] | 0.0103 | 0.0242 | 0.8 | 1.8 | – | –
4 | Cc1cc(CC(=O)Nc2cc(-c3[nH]c4cccnc4c3-c3ccccn3)ccn2)on1 [Example 13, 2-(3-methylisoxazol-5-yl)-N-[4-[3-(2-pyridyl)-^1H-pyrrolo[3,2-b]pyridin-2-yl]-2-pyridyl]acetamide] | 0.0286 | 0.0413 | 65.9 | 161 | – | –
5 | Cc1cc(CC(=O)Nc2cc(-c3[nH]c4cccnc4c3-c3ccccn3)ccn2)n(C)n1 [Example 14] | 0.0354 | 0.0306 | 4.6 | 10.9 | – | –
6 | O=C(Cc1cnc2ccccn12)Nc1cc(-c2[nH]c3cccnc3c2-c2ccccn2)ccn1 [Example 1, 2-imidazo[1,2-a]pyridin-3-yl-N-[4-[3-(2-pyridyl)-^1H-pyrrolo[3,2-b]pyridin-2-yl]-2-pyridyl]acetamide] | 0.0717 | 0.0385 | 9.6 | 21.6 | – | –
7 | O=C(Cc1ccns1)Nc1cc(-c2[nH]c3cccnc3c2-c2ccccn2)ccn1 [Example 22, 2-isothiazol-5-yl-N-[4-[3-(2-pyridyl)-^1H-pyrrolo[3,2-b]pyridin-2-yl]-2-pyridyl]acetamide] | 0.027 | 0.0412 | 12.6 | 30.6 | – | –

More lines, in order of falling IC50 (human CSNK1G3), values ahead:

Row | IC50 (human CSNK1G3) [µM] | IC50 (human CSNK1A1) [µM] | solubility thermodynamic at 24 h [1, 2] [mg/L] | solubility thermodynamic at 24 h [1, 3] [µmol/L] | Thermodynamic Solubility [mg/l] (mean) [1] [mg/L] | Thermodynamic Solubility [μmol/L] (mean) [1] [µmol/L] | SMILES
8 | 0.102 | 0.0316 | 85.2 | 208 | – | – | Cn1cc(CC(=O)Nc2cc(-c3[nH]c4cccnc4c3-c3ccccn3)ccn2)cn1 [Example 2, 2-(1-methylpyrazol-4-yl)-N-[4-[3-(2-pyridyl)-^1H-pyrrolo[3,2-b]pyridin-2-yl]-2-pyridyl]acetamide]
9 | 0.0682 | 0.124 | 14.9 | 34.1 | – | – | Cc1nn(C)c(C)c1CC(=O)Nc1cc(-c2[nH]c3cccnc3c2-c2ccccn2)ccn1 [Example 17, N-[4-[3-(2-pyridyl)-^1H-pyrrolo[3,2-b]pyridin-2-yl]-2-pyridyl]-2-(1,3,5-trimethylpyrazol-4-yl)acetamide]
10 | 0.0627 | 0.291 | 84 | 177 | – | – | Cn1cc(C(CC(F)F)C(=O)Nc2cc(-c3[nH]c4cccnc4c3-c3ccccn3)ccn2)cn1 (stereo not drawn) [Example 19, 4,4-difluoro-2-(1-methylpyrazol-4-yl)-N-[4-[3-(2-pyridyl)-^1H-pyrrolo[3,2-b]pyridin-2-yl]-2-pyridyl]butanamide]
11 | 0.0274 | 0.188 | < 0.1 | < 0.22 | – | – | Cn1nc(CC(=O)Nc2cc(-c3[nH]c4cccnc4c3-c3ccccn3)ccn2)cc1C1CC1 [Example 29, 2-(5-cyclopropyl-1-methyl-pyrazol-3-yl)-N-[4-[3-(2-pyridyl)-^1H-pyrrolo[3,2-b]pyridin-2-yl]-2-pyridyl]acetamide]
12 | 0.0273 | 0.0501 | 59.5 | 150 | – | – | O=C(Cc1ccno1)Nc1cc(-c2[nH]c3cccnc3c2-c2ccccn2)ccn1 [Example 23, 2-isoxazol-5-yl-N-[4-[3-(2-pyridyl)-^1H-pyrrolo[3,2-b]pyridin-2-yl]-2-pyridyl]acetamide]
13 | 0.0265 | 0.0908 | 6.1 | 14.9 | – | – | Cc1cc(CC(=O)Nc2cc(-c3[nH]c4cccnc4c3-c3ccccn3)ccn2)no1 [Example 26, 2-(5-methylisoxazol-3-yl)-N-[4-[3-(2-pyridyl)-^1H-pyrrolo[3,2-b]pyridin-2-yl]-2-pyridyl]acetamide]
14 | 0.0154 | 0.0141 | 5.4 | 12.3 | – | – | Cc1nc(C)c(CC(=O)Nc2cc(-c3[nH]c4cccnc4c3-c3ccccn3)ccn2)s1 [Example 18, 2-(2,4-dimethylthiazol-5-yl)-N-[4-[3-(2-pyridyl)-^1H-pyrrolo[3,2-b]pyridin-2-yl]-2-pyridyl]acetamide]
15 | 0.0024 | 0.00527 | – | – | 0.20 | 0.40 | O=C(Nc1cc(-c2[nH]c3ccc(F)nc3c2-c2ccccn2)ccn1)[C@@H](CC(F)F)c1ccc(F)cc1 [Example C2, reference compound]
